*1 amine or outer side, *2 acyl side, *3 side chain or, on linkers, in order; H or OH if unused. Where a SMILES comes first, the peptide text is derived from it. [ ]: non-standard residue; d: D form. The star is where a group is joined. Dnp = O=[N+]([O-])c1ccc(*)c([N+](=O)[O-])c1; X2 = O=C([C@H](CCCCOCc1ccccc1)N[*:1])[*:2]; X1 = O=C([C@H](CCCCOc1ccccc1)N[*:1])[*:2]; Mca = COc1ccc2c(CC(=O)*)cc(=O)oc2c1; Dap = NC[C@H](N)C(=O)O

For series [1] the following is noted: octanol/water; Tao et al., J. Mol. Model. 1999; cited from earlier work.
The target of series [2] is T1, MMP-1 (Homo sapiens, UniProt P03956).
T1 sequence (P03956 100-469): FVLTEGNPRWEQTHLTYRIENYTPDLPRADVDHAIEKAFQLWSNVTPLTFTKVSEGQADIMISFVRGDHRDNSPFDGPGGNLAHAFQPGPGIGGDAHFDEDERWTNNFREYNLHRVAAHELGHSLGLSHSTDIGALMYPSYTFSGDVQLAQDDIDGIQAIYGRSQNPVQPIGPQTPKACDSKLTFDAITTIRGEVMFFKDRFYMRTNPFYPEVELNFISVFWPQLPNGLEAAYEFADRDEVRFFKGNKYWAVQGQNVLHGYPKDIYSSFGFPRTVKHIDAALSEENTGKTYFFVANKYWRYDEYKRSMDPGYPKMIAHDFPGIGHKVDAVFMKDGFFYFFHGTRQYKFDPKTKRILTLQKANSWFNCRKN
Kind of series: Km and kcat/Km of substrates with MMP-1. Format: biochemical. To be noted: summary of Table 1.

Series [3] has as its target T2, MMP-7 (Homo sapiens, UniProt P09237).
T2 sequence (P09237 95-267): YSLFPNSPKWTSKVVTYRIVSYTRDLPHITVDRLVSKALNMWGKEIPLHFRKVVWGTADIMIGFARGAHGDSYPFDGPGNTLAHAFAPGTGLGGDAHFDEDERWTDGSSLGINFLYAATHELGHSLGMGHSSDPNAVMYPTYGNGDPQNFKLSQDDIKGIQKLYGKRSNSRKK
In words: Km and kcat/Km of substrates with MMP-7. The class given is biochemical. To be noted: summary of Table 1.

As to `C[C@@H](O)[C@H](N)C(=O)O` [threonine], the “Log D contribution in a peptide” value in series [1] is recorded as −0.26.
For the compound `N[C@@H](Cc1c[nH]cn1)C(=O)O` [histidine], the “Log D contribution in a peptide” value in series [1] is on record as −0.44.
Turning to `NCCCC[C@H](N)C(=O)O` [lysine], the “Log D contribution in a peptide” value in series [1] is listed as −2.27.
With `COc1ccc2c(CC(=O)N[C@@H](CCCNC(=N)N)C(=O)N3CCC[C@H]3C(=O)N[C@@H](CC(C)C)C(=O)NCC(=O)N[C@@H](CCCCOCc3ccccc3)C(=O)N[C@@H](CNc3ccc([N+](=O)[O-])cc3[N+](=O)[O-])C(=O)N[C@@H](C)C(=O)N[C@@H](CCCNC(=N)N)C(=O)N[C@@H](CCC(=O)O)C(=O)N[C@@H](CCCNC(=N)N)C(N)=O)cc(=O)oc2c1` [Compound 20, N-2-[(7-methoxy-2-oxo-2H-chromen-4-yl)acetyl]-L-arginyl-L-prolyl-L-leucylglycyl-6-(benzyloxy)-L-norleucyl-3-[(2,4-dinitrophenyl)amino]-L-alanyl-L-alanyl-L-arginyl-L-alpha-glutamyl-L-argininamide] (Mca-RPLG[X2][Dap](Dnp)ARER-NH2), in series [2], the “kcat with MMP-1 (in words)” value is recorded as “low kcat or kcat of zero”. In addition, the “kcat with MMP-7 (in words)” value in series [3] is given as “low kcat or kcat of zero”.
Turning to `N[C@@H](CC(=O)O)C(=O)O` [aspartic acid], the “Log D contribution in a peptide” value in series [1] is on record as −2.06.
Take `COc1ccc2c(CC(=O)N[C@H](CCCNC(=N)N)C(=O)N3CCC[C@H]3C(=O)N[C@@H](CC(C)C)C(=O)NCC(=O)N[C@@H](CCCCOc3ccccc3)C(=O)N[C@@H](CNc3ccc([N+](=O)[O-])cc3[N+](=O)[O-])C(=O)N[C@@H](C)C(=O)N[C@H](CCCNC(=N)N)C(=O)N[C@H](CCC(=O)O)C(=O)N[C@H](CCCNC(=N)N)C(N)=O)cc(=O)oc2c1` [Compound 25, N-2-[(7-methoxy-2-oxo-2H-chromen-4-yl)acetyl]-D-arginyl-L-prolyl-L-leucylglycyl-6-phenoxy-L-norleucyl-3-[(2,4-dinitrophenyl)amino]-L-alanyl-L-alanyl-D-arginyl-D-alpha-glutamyl-D-argininamide] (Mca-[dR]PLG[X1][Dap](Dnp)A[dR][dE][dR]-NH2): the “kcat with MMP-1 (in words)” value in series [2] is given as “low kcat or kcat of zero”. The “kcat with MMP-7 (in words)” value in series [3] is “low kcat or kcat of zero”.
In the case of `COc1ccc2c(CC(=O)N[C@H](CCCNC(=N)N)C(=O)N3CCC[C@H]3C(=O)N[C@@H](CC(C)C)C(=O)NCC(=O)N[C@@H](CCCCOCc3ccccc3)C(=O)N[C@@H](CNc3ccc([N+](=O)[O-])cc3[N+](=O)[O-])C(=O)N[C@@H](C)C(=O)N[C@H](CCCNC(=N)N)C(=O)N[C@H](CCC(=O)O)C(=O)N[C@H](CCCNC(=N)N)C(N)=O)cc(=O)oc2c1` [Compound 21, N-2-[(7-methoxy-2-oxo-2H-chromen-4-yl)acetyl]-D-arginyl-L-prolyl-L-leucylglycyl-6-(benzyloxy)-L-norleucyl-3-[(2,4-dinitrophenyl)amino]-L-alanyl-L-alanyl-D-arginyl-D-alpha-glutamyl-D-argininamide] (Mca-[dR]PLG[X2][Dap](Dnp)A[dR][dE][dR]-NH2), in series [2], the “kcat with MMP-1 (in words)” value was “low kcat or kcat of zero”. Also, in series [3], the “kcat with MMP-7 (in words)” value is recorded as “low kcat or kcat of zero”.
Consider `C[C@H](N)C(=O)O` [alanine], for which the “Log D contribution in a peptide” value in series [1] is listed as −0.27.
Regarding `N[C@@H](CCC(=O)O)C(=O)O` [glutamic acid], in series [1], the “Log D contribution in a peptide” value is reported as −2.19.
As for `N=C(N)NCCC[C@H](N)C(=O)O` [arginine], the “Log D contribution in a peptide” value in series [1] is reported as −1.65.
Consider `NCC(=O)O` [glycine], for which the “Log D contribution in a peptide” value in series [1] is given as −0.22.
For `NC(=O)C[C@H](N)C(=O)O` [asparagine], the “Log D contribution in a peptide” value in series [1] was −0.98.

(Values after patent US20040018561A1, “Peptide compounds and their use as protease substrates” (priority 2002, published 2004).)
